Holding throughout (assay type): in vivo
Assay [1] deals with human subjects (airway responsiveness, FEV1). As to the kind of experiment: Inhalation challenge test: airway responsiveness measured as change in FEV1 (PD20). Conditions: for PD20 geometric mean: non-responders excluded; for PD20: individual subjects. An excerpt:
(§1) The clinical study described in Examples 2-4 was randomized, double blind, crossover, and controlled. Each subject attended the laboratory on three occasions. Procedures on the initial screening visit included obtaining information about the study and a number of investigations in the following order: medical history, lung function, reversibility and skin prick testing. At visit 2 and 3, separated by 2-7 days, the subjects were subjected to either an ATP or AMP challenge in a randomized fashion such that, by the end of the study, each patient had been tested with both compounds. Before, immediately after, and 30 minutes after the challenge, lung function and Borg score for dyspnoea were determined, and symptoms other than dyspnoea were recorded.
In the clinical study described in Examples 2-4, spirometric tests were performed using a dry spirometer (Vitalograph Ltd., Buckingham, England) and the best value of the three expiratory manoeuvers was expressed as liters and percentage of the predicted.
(§2) For the tests described in Examples 2-4, ATP and AMP (Sigma, Gillingham, Dorset, England) were dissolved freshly in normal saline solution to produce a range of doubling concentrations from 0.227-929 umol/ml for ATP and from 0.138-1152 umol/ml for AMP and immediately used for bronchial challenge. The solutions were administered using a breath-activated dosimeter (Mefar, Bovezzo, Italy) with an output of 10 ul per inhalation [Prieto et al. (2003) Chest 123:993-997]. The subjects, while wearing a nose clip, inhaled (via a mouthpiece) five breaths of normal saline, followed by sequential doubling concentrations of either ATP or AMP from functional residual capacity to total lung capacity. FEV1 was measured from two minutes after the fifth inhalation of normal saline until there was a fall in FEV1 of ≧20% of its value recorded after saline inhalation or until maximal concentration of either ATP or AMP was inhaled. The provocative dose causing a 20% decrease in FEV1 (PD20) was calculated by interpolation of the logarithmic dose response curve.
All data from the analyses described in Examples 2-4 were performed with a software package (GraphPad Prism Software, Inc., USA). The significance of differences among groups was assessed by Student's t-test, and analysis of categorical variables was examined by Chi-square test. Pearson's correlation coefficient and linear regression analysis were used to analyze the relationship between the percentage decreases in FEV1 and Borg score. The PD20 values for ATP and AMP were logarithmically transformed to normalize their distribution and presented as geometric means. All other numerical variables were expressed as the mean±SEM and significance was defined as p<0.05.

The subject of assay [2] is human subjects (cough, throat irritation, sputum). In words: Symptoms other than dyspnoea recorded after inhalation challenge. Conditions: all subjects.
Source text: as §1, §2

Assay [3] has as its system human subjects (perception of dyspnoea). As to the kind of experiment: Borg score for dyspnoea before and after inhalation challenge. The arrangement: key to ΔBorg (change in Borg score before and after challenge): Borg score after minus before challenge; 0–10 scale.
Source text: as §1
The modified Borg scale used to quantitate dyspnoea in the clinical study described in Examples 2-4 was a category scale in which words describing degrees of breathlessness were anchored to numbers between 0 and 10. The subjects were asked to select a number whose corresponding words most appropriately described their perception of breathlessness. The change in dyspnoea was expressed as ΔBorg, which was the difference in Borg score before and after the challenge [Rutgers et al. (2000) Eur. Respir. J. 16:486-490; Burdon et al. (1982) Am. Rev. Respir. Dis. 126:825-828]. Terms and associated numbers used in assessing Borg score were as follows: 0, “nothing at all”; 0.5, “very, very slight”; 1, “very slight”; 2, “slight”; 3, “moderate”; 4, “somewhat severe”; 5, “severe”; 7, “very severe”; 9, “very, very severe (almost maximal)”; and 10, “maximal” [Burdon et al. (1982)].
as §2

For assay [4], the system named is pulmonary RAR-containing afferent nerve fiber. As to the kind of experiment: Vagal activation experiments in dogs: action potentials in RAR-containing fibers. Conditions: anesthetized dog, rapid bolus; ATP 6 μmol/kg, capsaicin 10 ug kg−1, analogs 0.75 umol kg−1. As for the experimental part: (§3) The experiments described in Example 5 were performed essentially as described in Pelleg et al. [(1996) J. Physiol. 490(1):265-275] and U.S. Pat. No. 5,874,420, both of which are incorporated herein by reference in their entirety. In brief, they were performed on anesthetized (sodium pentobarbitone, 30 mg kg^−1 plus 3 mg kg^−1 h^−1, intravenous) dogs artificially ventilated with room air using a respirator. Arterial blood pH, PO2, PCO2, body temperature were maintained as described in U.S. Pat. No. 5,874,420. A peripheral vein was cannulated for the administration of physiological saline solution and maintenance doses of anesthetic. Catheters were introduced via the femoral vein and left atrial appendage and positioned in the right atrium and left atrium for the administration of test solutions. The chest was opened by a longitudinal sternotomy. The right cervical vagosympathetic trunk was exposed by a midcervical longitudinal section of the skin and careful dissection of neck muscles and connective tissues. The edges of the cut skin were elevated and secured to create a trough which was filled with warm (about 37° C.) mineral oil. A section of the vagosympathetic trunk was placed on a small plate of black Perspex™ and fine branches were separated from the main bundle by careful dissection using microsurgical tools and a dissecting microscope (Model F212, Jenopik Jena, GmbH, Germany).
Extracellular neural action potentials were recorded using a custom-made bipolar electrode that contained two platinum-iridium wires (1.25 cm×0.0125 cm) connected to a high-impedence first-stage differential amplifier (model AC8331, CW, Inc., Ardmore, Pa.) via a shielded cable. The output of the first-stage amplifier was fed into a second-stage differential amplifier (model BMA-831/C, CWE, Inc.). Isolated fibers were laid on the pair of platinum-iridium wires. Vagal C fibers with chemosensitive endings have a sparse irregular discharge which is not associated with cardiac or respiratory cycles. Confirmation of fiber type was obtained by: first monitoring the response to capsaicin (10 microg kg^−1, intra-right atrial bolus); second, monitoring the response to mechanical stimulation of the lungs using gentle probing with forceps as well as inflation of the lungs to 2-3 times the tidal volume; and third, determining the speed of conduction using a stimulating electrode positioned distal to the initial recording site. Nerve fibers with RAR on their pulmonary endings, spontaneously fire a brief (i.e., short lasting) volley of action potentials associated with peak tracheal pressure during each respiratory cycle.
[…] Volume controls consisted of either 5 ml+5 ml or 1 ml+3 ml physiological saline. All injections were performed in the same mode by the same person. To exclude involvement of baroreceptors in the recorded neural activity, the latter was monitored before and after a bolus of nitroglycerine (1 mg; intravenous).
The procedure described in Example 1 was used to measure action potentials in dog pulmonary fibers with RAR on their terminals following administration of various agents. RAR activation generated a brief volley of action potentials associated with each respiratory cycle that was seen before as well as after administration of ATP (FIG. 7). […] Thus ATP modified the activity of the RAR-containing fiber manifested in their transient loss of the rapid adaptability characteristic.

In the next assay the test system is vagal C fiber. In words: Vagal activation experiments in dogs: action potentials in vagal C fibers. Particulars: anesthetized dog, rapid bolus; simultaneous recording with RAR-containing fiber. As for the experimental part: as §3
Extracellular neural action potentials were recorded using a custom-made bipolar electrode that contained two platinum-iridium wires (1.25 cm×0.0125 cm) connected to a high-impedence first-stage differential amplifier (model AC8331, CW, Inc., Ardmore, Pa.) via a shielded cable. The output of the first-stage amplifier was fed into a second-stage differential amplifier (model BMA-831/C, CWE, Inc.). Isolated fibers were laid on the pair of platinum-iridium wires. Vagal C fibers with chemosensitive endings have a sparse irregular discharge which is not associated with cardiac or respiratory cycles. […]
ATP (3 umole kg^−1) and capsaicin (10 ug kg^−1) were administered as a rapid bolus into the right atrium (5 ml test solution+5 ml physiological saline flush). α,βmATP and β,γmATP were given as one low dose only (0.75 umol kg^−1) to avoid systemic side effects. […] To exclude involvement of baroreceptors in the recorded neural activity, the latter was monitored before and after a bolus of nitroglycerine (1 mg; intravenous). […]

Values joined by “and” are separate entries in the source; they are usually repeats but may differ in a detail not shown here. Equal values may be shown once.

In assay [1] (19 smoking subjects (seven healthy smokers, seven smokers at risk, five COPD)), `Nc1ncnc2c1ncn2[C@@H]1O[C@H](COP(=O)(O)O)[C@@H](O)[C@H]1O` [AMP, adenosine 5′-monophosphate] had a patients with bronchoconstriction of 21%. Besides, the PD20 geometric mean in assay [1] (COPD (n = 7)) is 210.6 µmol/mL; in assay [1] (asthma (n = 10)), 113.5 µmol/mL; in assay [1] (healthy smokers (n = 7)) it was 74.6 µmol/mL; in assay [1] (non-smokers (n = 10)), over 1152 µmol/mL; in assay [1] (smokers at risk (n = 7)), 576.0 µmol/mL. The “patients who responded to challenge” value in assay [1] (COPD patients) is 33%; in assay [1] (patients with asthma), 90%. Moreover, the “PD20 geometric mean (range)” value in assay [1] (all subjects who had airway responsiveness) is reported as 82.9 (0.9-576.0) umol/ml. Moreover, the response to challenge entry in assay [1] (healthy non-smokers, no change in FEV1 or reduction of less than 20%) is on record as “negative”. The “subjects who responded to challenge” value in assay [1] (healthy smokers) and in assay [1] (smokers at risk) was 14% throughout. In addition, the PD20 in assay [1] (COPD (n = 7)) was 0.9 μmol/ml and >1152 μmol/ml (4×) and 72.0 μmol/ml and 168.4 μmol/ml; in assay [1] (asthma (n = 10)), 576.0 µmol/mL and 3.46 µmol/mL and 54.7 µmol/mL and 559.3 µmol/mL and 461.7 µmol/mL and 176.0 µmol/mL and >1152 µmol/mL and 15.8 µmol/mL and 556.4 µmol/mL and 72.0 µmol/mL; in assay [1] (healthy smokers (n = 7)), >1152 μmol/ml (6×) and 74.6 μmol/ml; in assay [1] (non-smokers (n = 10), provocative dose causing 20% decrease in FEV1) it was over 1152 µmol/mL; in assay [1] (smokers at risk (n = 7)) it was >1152 μmol/ml (6×) and 576.0 μmol/ml. Besides, the “subjects responsive to challenge” value in assay [1] (of the 40 subjects in the study) is listed as 32.5%. Moreover, the “ΔFEV1 (decrease in FEV1 as percentage of baseline FEV1)” value in assay [1] (patients with asthma) is recorded as 22%. Further, in assay [2], the “subjects who coughed after challenge” value is 48%. Also, in assay [2], the “subjects who had sputum after challenge” value is 10%. Besides, the “subjects who had throat irritation after challenge” value in assay [2] is on record as 53%. The “ΔBorg (change in Borg score before and after challenge)” value in assay [3] (COPD) came to 0.6; in assay [3] (patients with asthma), 2.3. Also, the entries for the “Borg score after challenge (at PD20)” value in assay [3] (COPD patients) and in assay [3] (patients with asthma) were 0.8 and 2.5, respectively.

`COc1cc(CNC(=O)CCCC/C=C/C(C)C)ccc1O` [capsaicin]: the “effect on action potentials of RAR-containing fibers” value in assay [4] is “did not alter the firing pattern”. The “effect on action potentials of C fibers” value in the assay with vagal C fiber is recorded as “stimulated only the former”.

On to `Nc1ncnc2c1ncn2[C@@H]1O[C@H](COP(=O)(O)OP(=O)(O)CP(=O)(O)O)[C@@H](O)[C@H]1O` [β,γmATP, β,γ-methylene ATP], for which the “effect on action potentials of RAR-containing fibers” value in assay [4] is recorded as “acted similarly to ATP”. Also, the “effect on action potentials of C fibers” value in the assay with vagal C fiber is “acted similarly to ATP”.

These data come from patent US20060029548A1, “Methods of diagnosing, monitoring and treating pulmonary diseases” (priority 2004, published 2006).
